# Values joined by “and” are separate entries in the source; they are usually repeats but may differ in a detail not shown here. Equal entries are not always repeated.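 Grown in 96-well plates, cells were treated for 48 hours with each compound at five concentrations. Insufficient inhibition: endpoint recorded as highest concentration tested. GI50 is the concentration that inhibits growth by half. TGI denotes the concentration required for complete inhibition of growth.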
# Tests used:
# Test in all cases: NCI anticancer screen, dose series, 48 h
# 786-0 renal = tested on: 786-0 renal
# UO-31 renal = tested on: UO-31 renal
# NCI-H522 lung = tested on: NCI-H522 lung
# A498 renal = tested on: A498 renal
# LOX IMVI melanoma = tested on: LOX IMVI melanoma
# NCI-H226 lung = tested on: NCI-H226 lung
# OVCAR-5 ovarian = tested on: OVCAR-5 ovarian
# HL-60(TB) leukemia = tested on: HL-60(TB) leukemia
# MDA-MB-231 breast = tested on: MDA-MB-231 breast
# MOLT-4 leukemia = tested on: MOLT-4 leukemia
Compound,GI50 (786-0 renal),TGI (786-0 renal),GI50 (UO-31 renal),TGI (UO-31 renal),GI50 (NCI-H522 lung),TGI (NCI-H522 lung) [µM],GI50 (A498 renal),TGI (A498 renal) [µM],GI50 (LOX IMVI melanoma) [µM],TGI (LOX IMVI melanoma) [µM],GI50 (NCI-H226 lung) [µM],TGI (NCI-H226 lung),GI50 (OVCAR-5 ovarian) [µM],TGI (OVCAR-5 ovarian),GI50 (HL-60(TB) leukemia),TGI (HL-60(TB) leukemia),GI50 (MDA-MB-231 breast),TGI (MDA-MB-231 breast),GI50 (MOLT-4 leukemia),TGI (MOLT-4 leukemia)
CN1CCN(c2ccc3nc(-c4ccc5nc(-c6ccc(C(F)(F)F)cc6)[nH]c5c4)[nH]c3c2)CC1,3.3 µM,12.7 µM,12.5 µM,28 µM,1.47 µM,3.39,10.7 µM,29.6,1.82,3.36,9.59,29.9 µM,2.68,6.58 µM,1.47 µM,3.45 µM,2.11 µM,3.85 µM,2.33 µM,4.96 µM
Cc1ccc2nc(NC(=O)CSC(=S)N3CCN(Cc4ccccc4)CC3)sc2c1,> 100 µM,> 100 µM,> 79.5 µM,> 100 µM,> 100 µM,> 100,> 100 µM,> 100,–,> 21,> 100,> 100 µM,> 100,> 100 µM,> 83.6 µM,> 100 µM,> 100 µM,> 100 µM,> 100 µM,> 100 µM
COc1cc2c3c(n(CCCn4cccn4)c(=O)c2cc1OC)-c1cc2c(cc1C3=O)OCO2,0.429 µM,2.76 µM,0.962 µM,18.1 µM,2.07 µM,63.7,2.48 µM,14.2,0.728,11.1,0.922,9.51 µM,14,64.4 µM,–,–,8.65 µM,35.5 µM,0.351 µM,> 35.9 µM
CCCCCn1ncc(-c2c(O)c(O)cc3c(O)c(-c4c(C)cc5c(-c6cnn(CCCCC)n6)c(O)c(O)cc5c4O)c(C)cc23)n1,0.171 µM,2.61 µM,0.18 µM,1.84 µM,0.0984 µM,1.07,3.99 µM,8.25,0.0908,1.16,0.141,2.8 µM,0.222,6.57 µM,0.124 µM,3.57 µM,0.182 µM,5.67 µM,0.0898 µM,8.28 µM
CCN(CCc1ccc(F)cc1)c1ccc(CO)c(Cl)c1,12.2 µM,27 µM,11.1 µM,23.8 µM,10.9 µM,25.4,0.12 µM,0.268,12.1,25.6,0.199,0.637 µM,0.505,2.28 µM,9.01 µM,30.3 µM,11.4 µM,24.4 µM,14.3 µM,50.1 µM
Nc1nc(N)c2ncn(Cc3c(Cl)cccc3Cl)c2n1,–,> 100 µM,–,> 100 µM,–,> 100,–,> 100,–,> 100,–,> 100 µM,–,> 100 µM,–,–,–,> 100 µM,–,> 100 µM
CCN(CC)CCNc1ccc(CO)c2sc3ccccc3c(=O)c12,4.99 µM and 19.4 µM,18.8 µM and 52.1 µM,2.09 µM and 8.51 µM,20.9 µM [middle of 4 runs],1.48 µM and 8.14 µM,–,1.26 µM and 6.98 µM and 3.61 µM,–,–,–,1.74,4.48 µM and 44.8 µM and 26.1 µM,5.05,25.1 µM [middle of 4 runs],8.47 µM [middle of 4 runs],24.5 µM [middle of 4 runs],4.26 µM and 4.92 µM,21.7 µM and 20.6 µM,3.14 µM and 3.32 µM,14.1 µM [middle of 4 runs]
COc1cc2c(c(OC)c1OC)C(=O)c1c-2n(CCCN)c(=O)c2cc([N+](=O)[O-])ccc12,0.481 µM,1.04 µM,1.89 µM,3.57 µM,5.79 µM,14,1.41 µM,2.99,–,–,19,40.1 µM,1.61,3.04 µM,4.5 µM,10.9 µM,1.8 µM,4 µM,8.08 µM,19.1 µM
CO/N=C(\COc1ccc2c(=O)cc(-c3ccccc3)oc2c1)c1ccc(OC)cc1,> 100 µM,> 100 µM,> 100 µM,> 100 µM,> 100 µM,> 100,90.9 µM,> 100,> 100,> 100,> 100,> 100 µM,> 100,> 100 µM,> 100 µM,> 100 µM,48.4 µM,> 100 µM,–,–
O=C(/C=C/c1ccccc1)c1ccc(O)c(CN2CCN(c3cc4c(cc3F)c(=O)c(C(=O)O)cn4C3CC3)CC2)c1,0.961 µM,> 100 µM,–,–,2.42 µM,> 100,0.941 µM,4.93,–,–,3.54,> 100 µM,3.91,> 100 µM,0.77 µM,> 100 µM,1.94 µM,7.65 µM,–,–
O=C(Oc1ccccc1Cl)c1cccnc1Nc1ccnc(C(F)(F)F)c1,14.7 µM,31.4 µM,14.6 µM,32.6 µM,6.6 µM,23.3,17.3 µM,37.2,3.96,14.2,2.61,8.07 µM,39.6,> 100 µM,–,–,11.9 µM,46.7 µM,2.52 µM,8.97 µM
C[C@]1(O)CC(=O)[C@]2(O)C3=C(C=C[C@]2(O)C1)C(=O)c1c(O)cccc1C3=O,2.88 µM,8.5 µM,1.23 µM,2.52 µM,–,–,13 µM,25.9,2.25,5.77,1.69,3.69 µM,6.51,19.8 µM,2.05 µM,4.5 µM,2.25 µM,6.6 µM,1.12 µM,3.98 µM
COc1cc2c(C#N)n3c(c2cc1OC)C(=O)C(c1ccccc1)Oc1ccccc1-3 (stereo unspecified),5.7 µM,39.1 µM,–,–,–,–,1.85 µM,9.15,3.18,> 100,2.9,> 100 µM,–,–,–,–,4.05 µM,68.6 µM,5.37 µM,> 100 µM
COc1ccc(OC)c(-c2cn3nc(-c4c[nH]c5ccc(Br)cc45)sc3n2)c1,2.16 µM,4.57 µM,1.67 µM,11.2 µM,1.98 µM,4.81,10.2 µM,24.6,–,–,10.3,39.8 µM,3.52,15.6 µM,9.21 µM,> 100 µM,1.73 µM,4.05 µM,–,–

# Source: PubChem BioAssay (NCI)
